Experimental data from US8802669B2, “Dihydropyrimidine compounds and preparation methods, pharmaceutical compositions and uses thereof” (Institute of Pharmacology and Toxicology Academy of …, priority 2009, dated 2014).

Key:
[1] = Cytotoxicity in HepG2.2.15 cells (cell morphology, Reed & Muench); type: cell-based; details: human, pathological changes observed by microscope after 8 days, read-out: TC50
Protocol: (§1) The antiviral tests were carried out in 96-well microtitre plates. Only growth medium and HepG2.2.15 cells were added to the first vertical row of the plate, which row severed as a blank control.
(§2) Stock solutions of the test compounds (50 mM) were initially dissolved in DMSO, and further dilutions were prepared in the growth medium of HepG2.2.15. The compounds according to the present invention, usually in a test concentration of 100 μg/ml (1st test concentration), were in each case pipetted into the second vertical test row of the microtitre plate and subsequently diluted by a factor of 2 each time, up to 2^10-fold, using growth medium plus 2% of foetal calf serum (volume 25 μl).
(§3) 225 μl of a HepG2.2.15 cell suspension (5×10^4 cells/ml) in growth medium plus 2% foetal calf serum were then added to each well of the microtitre plate.
(§4) The test batch was incubated at 37° C., 5% CO2 for 4 days. The supernatant was subsequently siphoned off and discarded, and 225 μl of freshly prepared growth medium were added to the wells. Once more, the compounds according to the present invention were added, in a volume 25 μl. The batches were incubated fro another 4 days.
Before the supernatants were harvested for determining the antiviral effect, the HePG2.2.15 cells were examined under the light microscope or by biochemical detection methods (for example Alamar Blue staining or Trypan Blue staining) for cytotoxic changes.
Substances-induced cytotoxic or cytostatic changes in the HepG2.2.15 cells were determined as changes in the cell morphology, for example under a light microscope. Such substance-induced changes of the HepG2.2.15 cells in comparison with untreated cells was apparent, for example, as cell lysis, vacuolization changed cell morphology. The pathological changes were observed by microscope after 8 days as index, a complete destroy being indicated as 4, 75% as 3, 50% as 2, 25% as 1, and no pathological change as 0. The average pathological change degree and inhibited percentages at various concentration were calculated, and a half-maximum toxic concentration (TC50) and a maximum non-toxic concentration […] were determined according to Reed & Muench methods.
TC50 means the concentration at which 50% of the cells have a morphology which is […] to the corresponding cell control by the compounds according to the present invention.

HBV DNA = assay: Antiviral activity: inhibition of HBV DNA in supernatant of HepG2.2.15 cells (dot blot hybridization); type: cell-based, hepatitis B virus; details: for IC50: Hepatitis B virus, HepG2.2.15 cells, 8 days (2 x 4 days) incubation, read-out: IC50 (Inhibitory effect on HBV DNA); for SI: selectivity index, TC50 against IC50, HepG2.2.15 cells
Protocol: The antiviral activity of the compounds according to the present invention was tested following the methods described by Sells et al. (M. A. Sells, M. L. Chen, g. Acs, Proc. Natl. Acad. Sci., 1987, 84, 1005-1009) and Korba et al., (B. E. Korba, J. L. Gerin, Antiviral Research, 1992, 19. 55-70).
as §1, §2, §3, §4
The supernatants were subsequently harvested and, by means of reduced pressure, siphoned onto 96-well dot blot chambers covered with a nylon membrane (in accordance with the specification provided by the manufacturer).
After transfer of the supernatants onto the nylon membrane of the blot apparatus (see above), the supernatants of the HepG2.2.15 cells were denatured (1.5 M NaCl/0.5 N NaOH), neutralized (3 M […]/0.5 M Tris HCl, pH 7.5) and washed (2×SSC). By incubation of the filters at 120° C. for 2-4 hours, the DNA was subsequently baked onto the membrane.
The viral DNA of the treated HEpG2.2.15 cells on the nylon filter membrane was usually detected using non-radioactive digoxygenin-labelled hepatitis B-specific DNA probes which were in each case in accordance with the specifications of the manufacturer labelled with digoxygenin, purified and used for hybridization.
Briefly speaking, the prehybridization and hybridization were carried out in 5×SSC, 1×blocking reagent, 0.1% N-lauroylsacosine, 0.02% SDS and 100 μg of DNA from herring sperm. The prehybridization was carried out at 60° C. for 30 minutes and the specific hybridization was carried out using 20 to 40 ng/ml of the digoxygenated denatured HBV-specific DNA (14 hours, 60° C.). The fillers were subsequently washed, and then determination of HBV DNA by digoxygenin antibodies was carried out.
The digoxygenin-labelled DNA was detected immunologically in accordance with the specifications of the manufacturer.
Briefly speaking, the fillers were washed and prehybridized in a blocking agent (in accordance with the specifications of the manufacturer). They were subsequently hybridized for 30 minutes using an anti-DIG antibody linked to alkaline phosphatase. After a washing step, the substrate of alkaline phosphatase, CSPD, was added, incubated with the filters for 5 minutes, subsequently wrapped in plastic film and incubated at 37° C. for a further 15 minutes. The chemiluminescene of the Hepatitis B-specific DNA signals was visualized by exposition of the filters on an X-ray film (incubation, depending on the signal strength: 10 minutes to 2 hours). The half-maximum inhibitory concentration (IC50) was determined.
The half-maximum inhibitory concentration (IC50) means the concentration at which the hepatitis B-specific band was reduced by 50% in comparison with an untreated sample by the compound according to the present invention.

[2] = Solubility of the hydrochloride solid in solvents; type: physicochemical
Protocol: 0.18 g of the target compound obtained in Example 5 was dissolved in 2 ml of anhydrous ethanol, a solution of hydrogen chloride in ethyl-ether was added dropwise to precipitate a solid, and filtered to give 0.19 g of an off-white powdered solid.

Compound | CC50 at 8 days [1] [µM] | IC50 (HBV DNA) [µM] | SI (HBV DNA) | solubility in dichloromethane, ethyl acetate, acetone, and the like ([2]; dichloromethane, ethyl acetate, acetone) | solubility in methanol and ethanol ([2]; methanol and ethanol) | solubility in water ([2]; water)
CCOC(=O)C1=C(CN2CCN(CC)CC2)NC(c2c(F)cc(F)cc2F)=NC1c1ccc(F)cc1Cl (stereo not drawn) [Example 8, ethyl 2-(2,4,6-trifluorophenyl)-4-(2-chloro-4-fluorophenyl)-6-(4-ethylpiperazin-1-ylmethyl)-1,4-dihydropyrimidine-5-carboxylate] | 41 | 6.7 | 6.16 |  |  | 
CCOC(=O)C1=C(CN2CCOCC2)N=C(c2c(F)cc(F)cc2N2CCOCC2)NC1c1ccc(F)cc1Cl (stereo not drawn) [Example 13, ethyl 2-[2,4-difluoro-6-(morpholin-1-yl)phenyl]-4-(2-chlor-4-fluorophenyl)-6-(morpholine-1-ylmethyl)-1,4-dihydropyrimidine-5-carboxylate] | 55 | 4.4 | 12.72 |  |  | 
CCOC(=O)C1=C(CN(CCO)CCO)NC(c2c(F)cc(F)cc2F)=NC1c1ccc(F)cc1Cl (stereo not drawn) [Example 15, ethyl 2-(2,4,6-trifluorophenyl)-4-(2-chloro-4-fluorophenyl)-6-diethanolaminomethyl-1,4-dihydropyrimidine-5-carboxylate] | 54 | 6.7 | 8.11 |  |  | 
CCOC(=O)C1=C(CN2CCOCC2)NC(c2c(F)cc(F)cc2F)=NC1c1ccc(F)cc1Cl.Cl (stereo not drawn) [Example 18, ethyl 2-(2,4,6-trifluorophenyl)-4-(2-chloro-4-fluorophenyl)-6-(morpholin-1-ylmethyl)-1,4-dihydropyrimidine-5-carboxylate hydrochloride] | 31 | 2.4 | 13.37 | insoluble | soluble slightly | greatly soluble
